Read-outs that look alike come from different tables or passages of the source. Positions of bridges follow the written chain, without caps; N, C: chain ends. Non-standard residues stand in square brackets, D forms with d. Chains are numbered I, II in the order given. *: point of attachment. C18 diacid = O=C(O)CCCCCCCCCCCCCCCCC(=O)*; NMeY = CN[C@@H](Cc1ccc(O)cc1)C(=O)O; Aib = CC(C)(N)C(=O)O

The nature of series [1]: Solubility in phosphate buffer pH 7.4. An outline of the steps:
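3 mg of peptide treated with 100 μL portions of 200 mM phosphate buffer pH 7.4, sonicating/vortexing up to 1 min, with further buffer added until fully dissolved. Solubility then quantified by HPLC.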

The target of another series is T1, human GIPR (Homo sapiens, UniProt P48546).
T1 construct: HEK-293T cells overexpressing full-length human GIPR; FLAG (N); host or cells: HEK-293T
T1 sequence (P48546 22-466): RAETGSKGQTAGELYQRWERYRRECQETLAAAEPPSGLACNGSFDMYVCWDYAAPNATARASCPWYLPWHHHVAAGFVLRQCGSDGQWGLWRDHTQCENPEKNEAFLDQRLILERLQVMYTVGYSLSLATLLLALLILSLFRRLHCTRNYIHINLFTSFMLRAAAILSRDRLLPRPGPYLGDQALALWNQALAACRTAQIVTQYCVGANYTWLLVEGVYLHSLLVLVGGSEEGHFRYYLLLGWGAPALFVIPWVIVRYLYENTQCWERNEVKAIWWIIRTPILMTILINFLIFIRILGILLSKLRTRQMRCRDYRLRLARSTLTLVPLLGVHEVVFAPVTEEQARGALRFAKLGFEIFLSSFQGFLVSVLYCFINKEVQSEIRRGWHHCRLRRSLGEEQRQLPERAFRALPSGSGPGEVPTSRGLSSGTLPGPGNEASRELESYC
Briefly: Human GIPR agonist activity, intracellular cAMP accumulation. The series is classed as cell-based. How it is done:
Cells are cultured per the manufacturer's protocol in DMEM with 10% fetal bovine serum and 1 μg/mL puromycin and stored in frozen aliquots to be used as assay ready cells. On the day of the assay, cells are removed from frozen storage, washed two times in 1× Kreb's Ringer Buffer (Zenbio, Research Triangle Park, N.C.), and re-suspended to a concentration of 4×10^5 cells/mL in 1× Kreb's Ringer Buffer. […] Cells are incubated with test compound for 1 hr at room temperature in the dark, and cAMP accumulation is measured using the Cisbio HiRange cAMP assay kit (Bedford, Mass.) per the manufacturer's protocol. Anti-cAMP antibody and d2-cAMP tracer reagents diluted in lysis/detection buffer are incubated in the dark for 1 hr, and results are measured on an Envision plate reader (Perkin Elmer, Waltham, Mass.). Data is normalized using 1 nM GIP as 100% activity, and DMSO alone as 0% activity.

Another series has as its system C57BL/6J mice. The series can be described thus: Oral glucose tolerance test (OGTT). The series is classed as in vivo. Conditions: 3 nmol/kg s.c., 24 hours before glucose loading. An outline of the steps: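 Peptide or vehicle given s.c. at 0.1, 0.3, 3 or 10 nmol/kg (peptide-dependent), 24 h before oral 50% dextrose at 5 ml/kg unless stated otherwise. Blood glucose read at 0, 15, 30 and 60 min. % inhibition = (1−(AUC cpd−AUC naïve)/(AUC veh−AUC naïve))×100.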

The target of another series is T2, human GLP-1R (Homo sapiens, UniProt P43220).
T2 construct: HEK-293T cells overexpressing full-length human GLP-1R; FLAG (N); host or cells: HEK-293T
T2 sequence (P43220 24-463): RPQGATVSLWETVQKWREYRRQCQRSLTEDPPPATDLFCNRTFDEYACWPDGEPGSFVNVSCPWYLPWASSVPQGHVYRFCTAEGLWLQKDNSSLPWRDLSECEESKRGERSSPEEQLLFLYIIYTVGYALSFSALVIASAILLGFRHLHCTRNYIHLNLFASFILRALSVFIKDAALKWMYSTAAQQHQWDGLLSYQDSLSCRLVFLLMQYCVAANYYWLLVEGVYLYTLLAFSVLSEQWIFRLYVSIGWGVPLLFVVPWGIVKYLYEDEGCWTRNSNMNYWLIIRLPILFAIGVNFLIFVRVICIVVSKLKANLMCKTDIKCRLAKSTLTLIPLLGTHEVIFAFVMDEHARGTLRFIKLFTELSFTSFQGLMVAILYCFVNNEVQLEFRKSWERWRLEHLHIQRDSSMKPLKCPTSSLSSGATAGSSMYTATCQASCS
Briefly: Human GLP1R agonist activity, intracellular cAMP accumulation. The series is classed as cell-based. Conditions: HEK-293T cells overexpressing human GLP-1R, 1 hr. An outline of the steps:
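Frozen assay-ready cells washed and resuspended at 4×10^5 cells/mL in Krebs Ringer buffer, then incubated with compound 1 hr at room temperature in the dark. cAMP read by HTRF (anti-cAMP antibody, d2-cAMP tracer). Normalised to 1 nm GLP-1 (100%) and DMSO (0%).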
Background: cAMP levels reflect the balance of adenylyl cyclase and phosphodiesterase activity.

The subject of a further series is Dogs. Type of series: in vivo. Conditions: 10 nmol/kg s.c. How it is done: Dogs are transferred to an observation cage (700 mm W×700 mm D×700 mm H [W×D×H], without food) on 1 day before each apomorphine challenge. The dogs are weighed by using an electronic balance then test peptide compounds and vehicle will be administrated via the subcutaneous route. Apomorphine is challenged at 8 hr after the administration and emetic events will be monitored for 1 h by video recording. The second apomorphine challenge will be 72 hr after the administration and emetic events will be recorded by the same protocol. Emesis symptoms are continuously recorded using a video camera and stored on a blue ray disc. Observation of symptoms include retching (a rhythmic contraction of the abdomen) and vomiting (vomiting behavior, including the elimination of vomitus or similar behavior). Besides, the combination of retching and vomiting is defined as emesis, and the number of episodes, latency (time elapsed from morphine administration until the onset of the first emesis symptom), duration (time elapsed between the onset of the first and final episodes of emesis), and frequency (number of animals showing emesis/number of experimental animals) of each of these symptoms is calculated. The latency in cases where emesis symptoms are not noted is taken as the maximum value (1 h for apomorphine challenge) at the end of observation. When the duration of the emesis symptoms is less than 1 min, the duration is recorded, for convenience, as 1 min.

Where [2] appears, read: pH 7.4, aqueous buffer, pH 7.4 Phosphate Buffer - Solubility, 200 mM Phosphate buffer pH 7.4.
Where [3] appears, read: pH 7.4, solubility in phosphate buffer at pH 7.4, 200 mM phosphate buffer pH 7.4.
[4] abbreviates: Human GLP1R cAMP EC50, HEK293T (nM).
Setting [5] is: HEK-293T cells overexpressing human GIPR, cAMP accumulation, 1 hr, read-out: Human GIPR cAMP EC50, HEK293T.
The mark [6] stands for this setting: read-out: Human GLP1R cAMP EC50, HEK293T.

Take `CC[C@H](C)[C@H](NC(=O)[C@H](CO)NC(=O)[C@H](Cc1ccc(O)cc1)NC(=O)[C@H](CC(=O)O)NC(=O)[C@H](CO)NC(=O)[C@@H](NC(=O)[C@H](Cc1ccccc1)NC(=O)[C@@H](NC(=O)CNC(=O)[C@H](CCC(=O)O)NC(=O)C(C)(C)NC(=O)[C@H](Cc1ccc(O)cc1)NC)[C@@H](C)O)[C@@H](C)CC)C(=O)N[C@@H](C)C(=O)N[C@@H](CCCCNC(=O)CNC(=O)CNC(=O)CNC(=O)CNC(=O)CNC(=O)CCCCCCCCCCCCCCCCC(=O)O)C(=O)N[C@@H](CC(=O)O)C(=O)N[C@@H](CCCNC(=N)N)C(=O)NC(C)(C)C(=O)N[C@@H](C)C(=O)N[C@@H](CCC(N)=O)C(=O)NC(C)(C)C(=O)N[C@@H](CC(=O)O)C(=O)N[C@@H](Cc1ccccc1)C(=O)N[C@H](C(=O)N[C@@H](CC(N)=O)C(=O)N[C@@H](Cc1c[nH]c2ccccc12)C(=O)N[C@@H](CC(C)C)C(=O)N[C@@H](CC(C)C)C(=O)N[C@@H](C)C(=O)N[C@@H](CCC(N)=O)C(=O)N[C@@H](CCCNC(=N)N)C(=O)N1CCC[C@H]1C(=O)N[C@@H](CO)C(=O)N[C@@H](CO)C(=O)NCC(=O)N[C@@H](C)C(=O)N1CCC[C@H]1C(=O)N1CCC[C@H]1C(=O)N1CCC[C@H]1C(=O)N[C@@H](CO)C(=O)O)C(C)C` [Compound 43]: the solubility in series [1] (setting [2]) is not below 30 mg/mL; in series [1] (setting [3]) it was not below 15 mg/mL. For the same compound, the values for the concentration for a half-maximal effect (EC50) on human GIPR and at human GLP-1R (setting [4]) were 0.001 nM and 61.7 nM, respectively. In addition, the “Oral Glucose Tolerance Test Percent decrease in blood glucose AUC (%) over 60 mins” value with C57BL/6J mice is 97% (3 nmol/kg).
With `CC[C@H](C)[C@H](NC(=O)[C@H](Cc1ccccc1)NC(=O)[C@@H](NC(=O)CNC(=O)[C@H](CCC(=O)O)NC(=O)C(C)(C)NC(=O)[C@H](Cc1ccc(O)cc1)NC)[C@@H](C)O)C(=O)N[C@@H](CO)C(=O)N[C@@H](CC(=O)O)C(=O)N[C@@H](Cc1ccc(O)cc1)C(=O)N[C@@H](CO)C(=O)N[C@H](C(=O)NC(C)(C)C(=O)N[C@@H](CCCCNC(=O)CNC(=O)CNC(=O)CNC(=O)CNC(=O)CNC(=O)CCCCCCCCCCCCCCCCCCC(=O)O)C(=O)N[C@@H](CC(=O)O)C(=O)N[C@@H](CCCNC(=N)N)C(=O)NC(C)(C)C(=O)N[C@@H](C)C(=O)N[C@@H](CCC(N)=O)C(=O)NC(C)(C)C(=O)N[C@@H](CC(=O)O)C(=O)N[C@@H](Cc1ccccc1)C(=O)N[C@H](C(=O)N[C@@H](CC(N)=O)C(=O)N[C@@H](Cc1c[nH]c2ccccc12)C(=O)N[C@@H](CC(C)C)C(=O)N[C@@H](CC(C)C)C(=O)N[C@@H](C)C(=O)N[C@@H](CCC(N)=O)C(=O)N[C@@H](CCCNC(=N)N)C(=O)NCC(=O)O)C(C)C)[C@@H](C)CC` [Compound 67], the solubility in series [1] (pH 7.4) is not below 15 mg/mL; in series [1] (pH 7.4, aqueous buffer), not below 30 mg/mL. Also, the values for the EC50 at human GIPR (setting [5]) and at human GLP-1R (setting [6]) were 0.0013 nM and 33.9 nM, respectively.
For `CC[C@H](C)[C@H](NC(=O)[C@H](CO)NC(=O)[C@H](Cc1ccc(O)cc1)NC(=O)[C@H](CC(=O)O)NC(=O)[C@H](CO)NC(=O)[C@@H](NC(=O)[C@H](Cc1ccccc1)NC(=O)[C@@H](NC(=O)CNC(=O)[C@H](CCC(=O)O)NC(=O)C(C)(C)NC(=O)[C@H](Cc1ccc(O)cc1)NC)[C@@H](C)O)[C@@H](C)CC)C(=O)N[C@@H](C)C(=O)N[C@@H](CCCCNC(=O)CNC(=O)CNC(=O)CNC(=O)CNC(=O)CNC(=O)CCCCCCCCCCCCCCCCC(=O)O)C(=O)N[C@@H](CC(=O)O)C(=O)N[C@@H](CCCNC(=N)N)C(=O)NC(C)(C)C(=O)N[C@@H](C)C(=O)N[C@@H](CCC(N)=O)C(=O)NC(C)(C)C(=O)N[C@@H](CC(=O)O)C(=O)N[C@@H](Cc1ccccc1)C(=O)N[C@H](C(=O)N[C@@H](CC(N)=O)C(=O)N[C@@H](Cc1c[nH]c2ccccc12)C(=O)N[C@@H](CC(C)C)C(=O)N[C@@H](CC(C)C)C(=O)N[C@@H](C)C(=O)N[C@@H](CCC(N)=O)C(=O)N[C@@H](CO)C(=O)N1CCC[C@H]1C(=O)N[C@@H](CO)C(=O)N[C@@H](CO)C(=O)NCC(=O)O)C(C)C` [Compound 116] the same measures were not below 15 mg/mL, not below 30 mg/mL, 0.001 nM and 110 nM.
For the compound `CC[C@H](C)[C@H](NC(=O)[C@H](CO)NC(=O)[C@H](Cc1ccc(O)cc1)NC(=O)[C@H](CC(=O)O)NC(=O)[C@H](CO)NC(=O)[C@@H](NC(=O)[C@H](Cc1ccccc1)NC(=O)[C@@H](NC(=O)CNC(=O)[C@H](CCC(=O)O)NC(=O)C(C)(C)NC(=O)[C@@H](N)Cc1ccc(O)cc1)[C@@H](C)O)[C@@H](C)CC)C(=O)N[C@@H](C)C(=O)N[C@@H](CCCCNC(=O)CNC(=O)CNC(=O)CNC(=O)CNC(=O)CNC(=O)CCCCCCCCCCCCCCCCC(=O)O)C(=O)N[C@@H](CC(=O)O)C(=O)N[C@@H](CCCNC(=N)N)C(=O)NC(C)(C)C(=O)N[C@@H](C)C(=O)N[C@@H](CCC(N)=O)C(=O)NC(C)(C)C(=O)N[C@@H](CC(=O)O)C(=O)N[C@@H](Cc1ccccc1)C(=O)N[C@H](C(=O)N[C@@H](CC(N)=O)C(=O)N[C@@H](Cc1c[nH]c2ccccc12)C(=O)N[C@@H](CC(C)C)C(=O)N[C@@H](CC(C)C)C(=O)N[C@@H](C)C(=O)N[C@@H](CCC(N)=O)C(=O)N[C@@H](CO)C(=O)N1CCC[C@H]1C(=O)NCC(=O)O)C(C)C` [Compound 128], the solubility in series [1] (pH 7.4) is not below 15 mg/mL; in series [1] (pH 7.4, aqueous buffer), not below 30 mg/mL. For the same compound, the “% inhibition of emetic events at doses (nmol/kg) shown in dog apomorphine model” value in the series on Dogs (after 8 hrs (upper)) is 56% (10 nmol/kg); in the series on Dogs (after 72 hours (lower)), 60% (10 nmol/kg). In the series on C57BL/6J mice, the “Oral Glucose Tolerance Test Percent decrease in blood glucose AUC (%) over 60 mins” value is on record as 57% (3 nmol/kg).
“I: H-[NMeY][Aib]EGTFISDYSIALDR[Aib]AQ[Aib]KFVNWLLAQSPSSGAPPPS-OH / II: {C18 diacid}-PAPAPGG (amide I:21-II:C) [Compound 103]”: the solubility was not below 60 mg/mL in series [1] (setting [2]) and not below 15 mg/mL in series [1] (setting [3]). Besides, the EC50 on human GIPR is 0.0017 nM; on human GLP-1R (setting [4]) it was 29.5 nM.

For orientation: solubility means the dissolved amount per volume that the medium holds. The low end stands for a poorly soluble substance, the high end for a readily soluble substance. Usually EC50 stands for the midpoint of the concentration-response curve.
